Experimental data from ChEMBL document CHEMBL4177690, “(E)-3-(3,4,5-Trimethoxyphenyl)-1-(pyridin-4-yl)prop-2-en-1-one, a heterocyclic chalcone is a potent and selective CYP1A1 inhibitor and cancer chemopreventive agent” (Bioorg Med Chem Lett, 2017).

Key:
Cytochrome P450 1A1 [1] = biological target: T1, Cytochrome P450 1A1 (Homo sapiens, UniProt P04798); assay: Inhibition of human CYP1A1 expressed in yeast microsomal membranes using 7-ethoxyresorufin as substrate measured after 10 mins by fluorescence assay; assay type: cell membranes
T1 sequence (P04798 whole entry): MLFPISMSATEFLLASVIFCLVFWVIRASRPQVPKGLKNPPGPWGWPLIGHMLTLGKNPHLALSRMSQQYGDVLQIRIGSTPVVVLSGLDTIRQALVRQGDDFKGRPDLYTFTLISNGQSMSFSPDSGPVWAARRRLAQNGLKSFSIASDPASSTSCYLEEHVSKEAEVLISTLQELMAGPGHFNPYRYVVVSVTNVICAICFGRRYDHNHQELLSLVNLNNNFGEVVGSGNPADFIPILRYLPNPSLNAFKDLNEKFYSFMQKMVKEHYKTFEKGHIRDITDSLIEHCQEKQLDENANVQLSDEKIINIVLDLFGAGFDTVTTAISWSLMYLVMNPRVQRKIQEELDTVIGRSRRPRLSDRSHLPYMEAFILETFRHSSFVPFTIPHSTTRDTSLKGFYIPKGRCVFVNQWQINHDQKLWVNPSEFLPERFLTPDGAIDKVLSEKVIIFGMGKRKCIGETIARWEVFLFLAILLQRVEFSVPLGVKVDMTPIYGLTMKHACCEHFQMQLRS

Cytochrome P450 1B1 [2] = biological target: T2, Cytochrome P450 1B1 (Homo sapiens, UniProt Q16678); assay: Inhibition of human CYP1B1 expressed in yeast microsomal membranes using 7-ethoxyresorufin as substrate measured after 10 mins by fluorescence assay; assay type: cell membranes
T2 sequence (Q16678 whole entry): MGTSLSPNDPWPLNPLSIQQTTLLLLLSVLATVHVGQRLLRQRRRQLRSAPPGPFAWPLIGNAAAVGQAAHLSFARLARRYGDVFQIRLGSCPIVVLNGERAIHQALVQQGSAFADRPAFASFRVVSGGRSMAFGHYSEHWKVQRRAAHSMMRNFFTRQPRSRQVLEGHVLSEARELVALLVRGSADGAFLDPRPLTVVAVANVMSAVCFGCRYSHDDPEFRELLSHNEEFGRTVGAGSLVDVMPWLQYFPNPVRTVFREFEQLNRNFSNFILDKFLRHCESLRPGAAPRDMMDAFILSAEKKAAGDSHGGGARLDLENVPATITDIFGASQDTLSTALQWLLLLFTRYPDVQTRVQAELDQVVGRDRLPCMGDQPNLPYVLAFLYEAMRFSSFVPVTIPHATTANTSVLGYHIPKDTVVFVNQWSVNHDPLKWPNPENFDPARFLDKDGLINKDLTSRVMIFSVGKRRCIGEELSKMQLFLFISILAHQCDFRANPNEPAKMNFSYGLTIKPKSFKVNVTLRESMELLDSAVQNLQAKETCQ

Cytochrome P450 1A2 [3] = biological target: T3, Cytochrome P450 1A2 (Homo sapiens, UniProt P05177); assay: Inhibition of human CYP1A2 expressed in yeast microsomal membranes using 3-cyano-7-ethoxycoumarin as substrate measured after 10 mins by fluorescence assay; assay type: ADME, cell membranes, Microsomal Membrane
T3 sequence (P05177 whole entry): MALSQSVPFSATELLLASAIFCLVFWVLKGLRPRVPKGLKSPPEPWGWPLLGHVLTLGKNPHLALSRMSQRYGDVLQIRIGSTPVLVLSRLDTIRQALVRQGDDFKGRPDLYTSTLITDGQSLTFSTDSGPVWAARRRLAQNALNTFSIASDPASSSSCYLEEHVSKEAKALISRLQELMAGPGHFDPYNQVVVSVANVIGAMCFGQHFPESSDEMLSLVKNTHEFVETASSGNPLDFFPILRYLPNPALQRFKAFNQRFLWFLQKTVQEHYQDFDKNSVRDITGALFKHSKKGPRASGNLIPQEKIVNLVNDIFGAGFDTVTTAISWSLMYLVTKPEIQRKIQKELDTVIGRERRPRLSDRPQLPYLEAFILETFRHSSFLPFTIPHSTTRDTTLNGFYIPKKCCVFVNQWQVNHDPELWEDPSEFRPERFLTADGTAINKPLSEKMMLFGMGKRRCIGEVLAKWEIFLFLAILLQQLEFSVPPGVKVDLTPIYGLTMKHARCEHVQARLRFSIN

Cytochrome P450 2D6 [4] = biological target: T4, Cytochrome P450 2D6 (Homo sapiens, UniProt P10635); assay: Inhibition of human CYP2D6 expressed in yeast microsomal membranes using 7-ethoxy-methyloxy-3-cyanocoumarin as substrate measured after 10 mins by fluorescence assay; assay type: ADME, cell membranes, Microsomal Membrane
Cytochrome P450 2C9 [5] = biological target: T5, Cytochrome P450 2C9 (Homo sapiens, UniProt P11712); assay: Inhibition of human CYP2C9 expressed in yeast microsomal membranes using 3-cyano-7-ethoxycoumarin as substrate measured after 10 mins by fluorescence assay; assay type: ADME, cell membranes, Microsomal Membrane
Cytochrome P450 2C19 [6] = biological target: T6, Cytochrome P450 2C19 (Homo sapiens, UniProt P33261); assay: Inhibition of human CYP2C19 expressed in yeast microsomal membranes using 3-cyano-7-ethoxycoumarin as substrate measured after 10 mins by fluorescence assay; assay type: ADME, cell membranes, Microsomal Membrane
Cytochrome P450 3A4 [7] = biological target: T7, Cytochrome P450 3A4 (Homo sapiens, UniProt P08684); assay: Inhibition of human CYP3A4 expressed in yeast microsomal membranes using dibenzylfluorescein as substrate measured after 10 mins by fluorescence assay; assay type: ADME, cell membranes, Microsomal Membrane
Cytochrome P450 1A1 [8] = biological target: T1, Cytochrome P450 1A1; assay: Inhibition of recombinant human CYP1A1 expressed in HEK293 cells using 7-ethoxyresorufin as substrate pretreated for 30 mins followed by substrate addition measured for 60 mins by fluorescence assay; assay type: cell-based
Cytochrome P450 1B1 [9] = biological target: T2, Cytochrome P450 1B1; assay: Inhibition of recombinant human CYP1B1 expressed in HEK293 cells using 7-ethoxyresorufin as substrate pretreated for 30 mins followed by substrate addition measured for 60 mins by fluorescence assay; assay type: cell-based
Cytochrome P450 1A2 [10] = biological target: T3, Cytochrome P450 1A2; assay: Inhibition of recombinant human CYP1A2 expressed in HEK293 cells using 3-cyano-7-ethoxycoumarin as substrate pretreated for 30 mins followed by substrate addition measured for 60 mins by fluorescence assay; assay type: ADME
Cytochrome P450 2D6 [11] = biological target: T4, Cytochrome P450 2D6; assay: Inhibition of recombinant human CYP2D6 expressed in HEK293 cells using 7-ethoxy-methyloxy-3-cyanocoumarin as substrate pretreated for 30 mins followed by substrate addition measured for 60 mins by fluorescence assay; assay type: ADME, cell-based
Cytochrome P450 2C9 [12] = biological target: T5, Cytochrome P450 2C9; assay: Inhibition of recombinant human CYP2C9 expressed in HEK293 cells using 3-cyano-7-ethoxycoumarin as substrate pretreated for 30 mins followed by substrate addition measured for 60 mins by fluorescence assay; assay type: ADME
Cytochrome P450 2C19 [13] = biological target: T6, Cytochrome P450 2C19; assay: Inhibition of recombinant human CYP2C19 expressed in HEK293 cells using 3-cyano-7-ethoxycoumarin as substrate pretreated for 30 mins followed by substrate addition measured for 60 mins by fluorescence assay; assay type: ADME
Cytochrome P450 3A4 [14] = biological target: T7, Cytochrome P450 3A4; assay: Inhibition of recombinant human CYP3A4 expressed in HEK293 cells using dibenzylfluorescein as substrate pretreated for 30 mins followed by substrate addition measured for 60 mins by fluorescence assay; assay type: ADME

T6 sequence (P33261 whole entry): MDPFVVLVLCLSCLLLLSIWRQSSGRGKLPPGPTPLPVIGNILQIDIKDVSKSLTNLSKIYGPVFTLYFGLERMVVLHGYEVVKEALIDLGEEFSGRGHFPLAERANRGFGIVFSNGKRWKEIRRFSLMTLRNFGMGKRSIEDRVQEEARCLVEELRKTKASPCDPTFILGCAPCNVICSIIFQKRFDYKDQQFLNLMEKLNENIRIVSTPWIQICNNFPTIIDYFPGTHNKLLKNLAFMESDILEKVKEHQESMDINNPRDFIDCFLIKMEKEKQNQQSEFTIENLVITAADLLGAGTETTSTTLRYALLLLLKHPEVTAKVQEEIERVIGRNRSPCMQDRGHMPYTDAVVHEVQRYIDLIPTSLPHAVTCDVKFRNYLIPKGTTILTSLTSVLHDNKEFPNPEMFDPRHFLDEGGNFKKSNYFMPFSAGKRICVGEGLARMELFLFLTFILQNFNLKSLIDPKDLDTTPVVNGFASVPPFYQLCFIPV
T7 sequence (P08684 whole entry): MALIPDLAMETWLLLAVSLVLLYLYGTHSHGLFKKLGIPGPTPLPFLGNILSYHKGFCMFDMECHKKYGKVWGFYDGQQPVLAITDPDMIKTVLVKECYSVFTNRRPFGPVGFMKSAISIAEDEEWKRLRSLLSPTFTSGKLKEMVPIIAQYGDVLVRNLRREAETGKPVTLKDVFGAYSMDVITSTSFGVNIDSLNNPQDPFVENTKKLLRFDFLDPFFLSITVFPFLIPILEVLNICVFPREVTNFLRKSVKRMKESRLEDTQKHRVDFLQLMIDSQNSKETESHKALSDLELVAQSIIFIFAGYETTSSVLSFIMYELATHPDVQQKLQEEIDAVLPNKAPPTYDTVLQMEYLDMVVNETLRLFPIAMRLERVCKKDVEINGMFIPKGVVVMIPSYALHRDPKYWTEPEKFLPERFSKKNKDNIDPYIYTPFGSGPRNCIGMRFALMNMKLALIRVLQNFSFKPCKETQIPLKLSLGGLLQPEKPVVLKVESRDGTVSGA
T5 sequence (P11712 whole entry): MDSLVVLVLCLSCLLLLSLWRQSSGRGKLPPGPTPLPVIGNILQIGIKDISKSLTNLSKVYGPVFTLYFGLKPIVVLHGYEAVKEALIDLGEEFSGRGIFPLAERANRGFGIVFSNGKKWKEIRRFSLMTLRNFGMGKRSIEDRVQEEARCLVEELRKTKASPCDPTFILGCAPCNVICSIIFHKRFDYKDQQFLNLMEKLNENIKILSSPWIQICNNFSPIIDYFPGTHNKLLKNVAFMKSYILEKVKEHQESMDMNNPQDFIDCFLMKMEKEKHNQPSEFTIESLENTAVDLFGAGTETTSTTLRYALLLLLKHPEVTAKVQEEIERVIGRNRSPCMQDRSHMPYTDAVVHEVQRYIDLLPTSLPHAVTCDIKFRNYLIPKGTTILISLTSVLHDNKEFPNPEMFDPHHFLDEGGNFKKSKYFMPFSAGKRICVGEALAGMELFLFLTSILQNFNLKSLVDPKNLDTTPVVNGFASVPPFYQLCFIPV
T4 sequence (P10635 whole entry): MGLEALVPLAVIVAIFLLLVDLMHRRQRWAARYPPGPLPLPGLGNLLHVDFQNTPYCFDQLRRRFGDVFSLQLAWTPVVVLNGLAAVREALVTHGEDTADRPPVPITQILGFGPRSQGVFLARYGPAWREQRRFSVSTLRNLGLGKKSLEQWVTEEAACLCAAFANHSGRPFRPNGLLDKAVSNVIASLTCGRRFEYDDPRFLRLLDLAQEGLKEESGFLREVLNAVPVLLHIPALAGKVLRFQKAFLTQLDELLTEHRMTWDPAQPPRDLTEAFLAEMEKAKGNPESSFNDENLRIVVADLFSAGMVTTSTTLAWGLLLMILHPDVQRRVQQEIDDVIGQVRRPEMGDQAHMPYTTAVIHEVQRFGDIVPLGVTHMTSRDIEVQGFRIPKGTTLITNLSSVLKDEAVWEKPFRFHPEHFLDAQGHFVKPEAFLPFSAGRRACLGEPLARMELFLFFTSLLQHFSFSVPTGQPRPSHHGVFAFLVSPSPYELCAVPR

| Compound | IC50 (Cytochrome P450 1A1 [1]) | IC50 (Cytochrome P450 1B1 [2]) | IC50 (Cytochrome P450 1A2 [3]) | IC50 (Cytochrome P450 2D6 [4]) | IC50 (Cytochrome P450 2C9 [5]) | IC50 (Cytochrome P450 2C19 [6]) | IC50 (Cytochrome P450 3A4 [7]) | IC50 (Cytochrome P450 1A1 [8]) | IC50 (Cytochrome P450 1B1 [9]) | IC50 (Cytochrome P450 1A2 [10]) | IC50 (Cytochrome P450 2D6 [11]) | IC50 (Cytochrome P450 2C9 [12]) | IC50 (Cytochrome P450 2C19 [13]) | IC50 (Cytochrome P450 3A4 [14]) |
| --- | --- | --- | --- | --- | --- | --- | --- | --- | --- | --- | --- | --- | --- | --- |
| O=C(/C=C/c1ccc2c(c1)OCO2)c1ccncc1 | 1.12 µM | 2.11 µM | 1.5 µM | 12 µM | > 20 µM | > 20 µM | > 20 µM | 1.12 µM | 3.52 µM | 1.5 µM | > 10 µM | > 10 µM | > 10 µM | > 10 µM |
| COc1ccc(/C=C/C(=O)c2ccncc2)cc1OC | 0.38 µM | 0.17 µM | 0.12 µM | 8 µM | > 20 µM | > 20 µM | > 20 µM | 0.42 µM | 0.23 µM | 0.12 µM | > 10 µM | > 10 µM | > 10 µM | > 10 µM |
| COc1cc(/C=C/C(=O)c2ccncc2)cc(OC)c1 | 0.18 µM | 0.041 µM | 0.028 µM | 16 µM | > 20 µM | > 20 µM | > 20 µM | 0.22 µM | 0.031 µM | 0.028 µM | > 10 µM | > 10 µM | > 10 µM | > 10 µM |
| CCOc1c(OC)cc(/C=C/C(=O)c2ccncc2)cc1OC | 0.23 µM | 0.698 µM | 2.58 µM | 12 µM | > 20 µM | > 20 µM | > 20 µM | 0.28 µM | 0.61 µM | 2.21 µM | > 10 µM | > 10 µM | > 10 µM | > 10 µM |
| COc1ccc(/C=C/C(=O)c2ccncc2)cc1 | 6.31 µM | 7 µM | 12 µM | 15 µM | > 20 µM | > 20 µM | > 20 µM | 6.61 µM | 8.52 µM | 12 µM | > 10 µM | > 10 µM | > 10 µM | > 10 µM |
